Assay results reported in PubChem BioAssay (NCI).
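Dose response: 5 concentrations. Exposure: 48 h. Format: 96-well plates. Endpoint: linear interpolation; highest concentration if not reached. TGI marks complete inhibition of growth.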

Assays:
Assay in all cases: NCI tumour cell line growth inhibition, 48 h
CAKI-1 renal = test system: CAKI-1 renal
RPMI-8226 leukemia = test system: RPMI-8226 leukemia
SF-295 CNS = test system: SF-295 CNS
RXF 393 renal = test system: RXF 393 renal
DMS 273 small cell lung = test system: DMS 273 small cell lung
KM20L2 colon = test system: KM20L2 colon
HCC-2998 colon = test system: HCC-2998 colon
HOP-92 NSCLC = test system: HOP-92 NSCLC
UACC-257 melanoma = test system: UACC-257 melanoma
SNB-75 CNS = test system: SNB-75 CNS
NCI-H522 lung = test system: NCI-H522 lung
HOP-62 NSCLC = test system: HOP-62 NSCLC
A549 NSCLC = test system: A549 NSCLC
A498 renal = test system: A498 renal
SNB-78 CNS = test system: SNB-78 CNS
XF 498 CNS = test system: XF 498 CNS
SF-268 CNS = test system: SF-268 CNS
HCT-116 colon = test system: HCT-116 colon
TK-10 renal = test system: TK-10 renal
MALME-3M melanoma = test system: MALME-3M melanoma
786-0 renal = test system: 786-0 renal
HT29 colon = test system: HT29 colon
OVCAR-5 ovarian = test system: OVCAR-5 ovarian
EKVX NSCLC = test system: EKVX NSCLC
DLD-1 colon = test system: DLD-1 colon
M19-MEL melanoma = test system: M19-MEL melanoma
OVCAR-3 ovarian = test system: OVCAR-3 ovarian
SW-620 colon = test system: SW-620 colon
SK-MEL-2 melanoma = test system: SK-MEL-2 melanoma
NCI-H23 lung = test system: NCI-H23 lung
IGROV1 ovarian = test system: IGROV1 ovarian
DMS 114 small cell lung = test system: DMS 114 small cell lung
U251 CNS = test system: U251 CNS
COLO 205 colon = test system: COLO 205 colon
HL-60(TB) leukemia = test system: HL-60(TB) leukemia
HOP-18 NSCLC = test system: HOP-18 NSCLC
MOLT-4 leukemia = test system: MOLT-4 leukemia
UACC-62 melanoma = test system: UACC-62 melanoma
RXF-631 renal = test system: RXF-631 renal
K-562 leukemia = test system: K-562 leukemia
SN12C renal = test system: SN12C renal
M14 melanoma = test system: M14 melanoma
LOX IMVI melanoma = test system: LOX IMVI melanoma
HCT-15 colon = test system: HCT-15 colon
SK-OV-3 ovarian = test system: SK-OV-3 ovarian
UO-31 renal = test system: UO-31 renal
NCI-H460 lung = test system: NCI-H460 lung
SR leukemia = test system: SR leukemia
CCRF-CEM leukemia = test system: CCRF-CEM leukemia
SK-MEL-28 melanoma = test system: SK-MEL-28 melanoma
KM12 colon = test system: KM12 colon
ACHN renal = test system: ACHN renal
NCI-H226 lung = test system: NCI-H226 lung
LXFL 529 NSCLC = test system: LXFL 529 NSCLC
OVCAR-8 ovarian = test system: OVCAR-8 ovarian
SK-MEL-5 melanoma = test system: SK-MEL-5 melanoma
SNB-19 CNS = test system: SNB-19 CNS

With `CCSc1nnc(CSc2nc(-c3ccccc3)c(-c3ccccc3)[nH]2)n1-c1ccccc1` the TGI (CAKI-1 renal) was 63.7 µM, the TGI (RPMI-8226 leukemia) was 46.1 µM and the TGI (SF-295 CNS) was 44.7 µM. The TGI (RXF 393 renal) was 43.5 µM, the TGI (DMS 273 small cell lung) was 66.3 µM and the TGI (KM20L2 colon) was 32.1 µM. The TGI (HCC-2998 colon) was 36.5 µM, the TGI (HOP-92 NSCLC) was 38.5 µM and the TGI (UACC-257 melanoma) was 33.6 µM. For the same molecule, the TGI (SNB-75 CNS) was 42.9 µM, the TGI (NCI-H522 lung) was 30.5 µM and the TGI (HOP-62 NSCLC) was 35.2 µM. The TGI (A549 NSCLC) was 80.9 µM, the TGI (A498 renal) was 34.6 µM and the TGI (SNB-78 CNS) was greater than 100 µM. For the same molecule, the TGI (XF 498 CNS) was 35.3 µM, the TGI (SF-268 CNS) was 43.3 µM and the TGI (HCT-116 colon) was 36.2 µM. For the same molecule, the TGI (TK-10 renal) was 57.1 µM, the TGI (MALME-3M melanoma) was 44.2 µM and the TGI (786-0 renal) was 45.7 µM. For the same molecule, the TGI (HT29 colon) was 35.4 µM, the TGI (OVCAR-5 ovarian) was 30.4 µM and the TGI (EKVX NSCLC) was 63.5 µM. It also gave a TGI (DLD-1 colon) of 37 µM, a TGI (M19-MEL melanoma) of 33.3 µM and a TGI (OVCAR-3 ovarian) of 35.2 µM. The TGI (SW-620 colon) was 30.2 µM, the TGI (SK-MEL-2 melanoma) was 45.6 µM and the TGI (NCI-H23 lung) was 40.8 µM. It also gave a TGI (IGROV1 ovarian) of 42.3 µM, a TGI (DMS 114 small cell lung) of 39.1 µM and a TGI (U251 CNS) of 31.7 µM. For the same molecule, the TGI (COLO 205 colon) was 29.5 µM, the TGI (HL-60(TB) leukemia) was 45.5 µM and the TGI (HOP-18 NSCLC) was 30.4 µM. The TGI (MOLT-4 leukemia) was 40 µM, the TGI (UACC-62 melanoma) was 30.2 µM and the TGI (RXF-631 renal) was 63.3 µM. The TGI (K-562 leukemia) was 56.3 µM, the TGI (SN12C renal) was 29.7 µM and the TGI (M14 melanoma) was 34.9 µM. For the same molecule, the TGI (LOX IMVI melanoma) was 43.8 µM, the TGI (HCT-15 colon) was 36 µM and the TGI (SK-OV-3 ovarian) was 60.8 µM. The TGI (UO-31 renal) was 33 µM, the TGI (NCI-H460 lung) was 36.9 µM and the TGI (SR leukemia) was 48.5 µM. The TGI (CCRF-CEM leukemia) was 49.4 µM, the TGI (SK-MEL-28 melanoma) was 37 µM and the TGI (KM12 colon) was 32.1 µM. For the same molecule, the TGI (ACHN renal) was 33.4 µM, the TGI (NCI-H226 lung) was 27.7 µM and the TGI (LXFL 529 NSCLC) was 67 µM. The TGI (OVCAR-8 ovarian) was 51.9 µM, the TGI (SK-MEL-5 melanoma) was 30.9 µM and the TGI (SNB-19 CNS) was 34.2 µM.
